Measurements taken from patent US20220340564A1, “ANTIBACTERIAL COMPOUNDS” (Janssen Sciences Ireland Unlimited Company, priority 2019, published 2022).

Test system: Mycobacterium tuberculosis strain EH4.0 expressing green-fluorescent protein (GFP)
Assay: microbe, parasite or virus in culture
Type: cell-based
Conditions: 168 h, read-out: pIC50 (converted)

Row | Structure (SMILES) | IC50 [nM]
1 | Cc1cc(F)c2ncc(C(=O)NCc3ccc(N4CCN(S(=O)(=O)C(F)(F)F)C=N4)c(F)c3)n2c1 [Compound 173] | 50.1
2 | O=C(NCc1ccc(N2CCN(S(=O)(=O)C(F)(F)F)C=N2)cc1)c1c(C2CC2)nc2ncc(Cl)cn12 [Compound 7] | 63.1
3 | O=C(NCc1cnc(N2CCN(S(=O)(=O)C(F)(F)F)C=N2)c(F)c1)c1c(C(F)(F)F)nc2ccc(Cl)cn12 [Compound 167] | 87.1
4 | CCc1nc2c(N)cc(C)cn2c1C(=O)NCc1ccc(N2CCN(S(=O)(=O)C(F)(F)F)C=N2)c(F)c1 [Compound 212] | 25.7
5 | CCc1nc2c(Cl)cc(Cl)cn2c1C(=O)NCc1ccc(N2CCN(S(=O)(=O)C(F)(F)F)C=N2)c(F)c1 [Compound 87] | 89.1
6 | CCc1nc2ncc(C)cn2c1C(=O)NCc1cnc(N2CCN(S(=O)(=O)C(F)(F)F)C=N2)c(F)c1 [Compound 201] | 12
7 | CCc1nc2nc(N3CCCC3)c(Cl)cn2c1C(=O)NCc1ccc(N2CCN(S(=O)(=O)C(F)(F)F)C=N2)c(F)c1 [Compound 82] | ≥ 501
8 | CCc1nc2cc(OC)ccn2c1C(=O)NCc1ccc(N2CCN(S(=O)(=O)C(F)(F)F)C=N2)cc1 [Compound 51] | 45.7
9 | CCc1nc2ncc(C)cn2c1C(=O)NCc1ccc(N2CCN(S(=O)(=O)C(F)(F)F)C(OC)=N2)cc1 [Compound 200] | 5.5
10 | CCc1nc2ccc(Cl)cn2c1C(=O)NCc1ccc(N2CCN(S(=O)(=O)C(F)(F)F)C(CC#N)=N2)cc1 [Compound 77] | 7.94
11 | Cc1nc2sc(Cl)cn2c1C(=O)NCc1ccc(N2CCN(S(=O)(=O)C(F)(F)F)C=N2)c(F)c1 [Compound 133] | 7.59
12 | CCc1nc2nc(OCc3ccccc3)c(F)cn2c1C(=O)NCc1ccc(N2CCN(S(=O)(=O)C(F)(F)F)C=N2)c(F)c1 [Compound 189] | ≥ 501
13 | CCc1nc2cccc(Cl)n2c1C(=O)NCc1ccc(N2CCN(S(=O)(=O)C(F)(F)F)C(OC)=N2)cc1 [Compound 70] | ≥ 501
14 | O=C(NCc1ccc(N2CCN(S(=O)(=O)C(F)(F)F)C=N2)c(F)c1)c1c(Br)nc2n1CCC2 [Compound 99] | 32.4
15 | O=C(NCc1ccc(N2CCN(S(=O)(=O)C(F)(F)F)C=N2)cc1)c1c(C(F)F)nc2n1CCCC2 [Compound 104] | 28.2
16 | CCc1nc2ccc(Cl)cn2c1C(=O)NCc1ccc(N2CCN(S(=O)(=O)C(F)(F)F)C(OC)=N2)c(F)c1 [Compound 37] | 3.98
17 | CCc1nc2ccc(Cl)cn2c1C(=O)NCc1ccc(N2CCNC=N2)cc1 [Compound 56] | 158000
18 | CCc1nc2n(c1C(=O)NCc1ccc(N3CCNC=N3)cc1)CCCC2 [Compound 57] | ≥ 501
19 | CCc1nc2nc(C)ccn2c1C(=O)NCc1ccc(N2CCN(S(=O)(=O)C(F)(F)F)C=N2)c(F)c1 [Compound 111] | 18.2
20 | CCc1nc2nc(OC)c(F)cn2c1C(=O)NCc1ccc(N2CCN(S(=O)(=O)C(F)(F)F)C=N2)c(F)c1 [Compound 179] | 126
21 | CCc1nc2ccc(Cl)cn2c1C(=O)NCc1ccc(N2CCN(S(=O)(=O)C(F)(F)F)C=N2)cc1OC [Compound 22] | 398
22 | CCc1nc2c(Cl)c(OC)ccn2c1C(=O)NCc1ccc(N2CCN(S(=O)(=O)C(F)(F)F)C=N2)cc1 [Compound 39] | 79.4
23 | CCc1nc2cc(Br)c(C)cn2c1C(=O)NCc1ccc(N2CCN(S(=O)(=O)C(F)(F)F)C=N2)c(F)c1 [Compound 97] | 33.9
24 | CCc1nc2n(c1C(=O)NCc1ccc(N3CCN(S(=O)(=O)CCOC)C=N3)cc1)CCCC2 [Compound 58] | 251
25 | COC1=NN(c2ccc(CNC(=O)c3c(C(F)F)nc4ccc(Cl)cn34)cc2F)CCN1S(=O)(=O)C(F)(F)F [Compound 206] | 2.45

Row | Structure (SMILES) | IC50 [nM]
26 | CCc1nc2ccc(Cl)cn2c1C(=O)NCc1cc(F)c(N2CCN(S(=O)(=O)C(F)(F)F)C=N2)c(F)c1 [Compound 35] | 5.01
27 | CCc1nc2cc(C)c(C)cn2c1C(=O)NCc1cnc(N2CCN(S(=O)(=O)C(F)(F)F)C=N2)c(F)c1 [Compound 185] | 46.8
28 | CCc1nc2ncc(Cl)cn2c1C(=O)NCc1ccc(N2CCN(S(=O)(=O)CC(C)C)C=N2)cc1 [Compound 23] | 12.6
29 | CCc1nc2n(c1C(=O)NCc1ccc(N3CCN(S(=O)(=O)C(F)(F)F)C=N3)cc1)CCCC2 [Compound 3] | 31.6
30 | CCc1nc2nc3c(cn2c1C(=O)NCc1ccc(N2CCN(S(=O)(=O)C(F)(F)F)C=N2)c(F)c1)OCCN3C [Compound 205] | 66.1
31 | CCc1nc2nc(N)c(F)cn2c1C(=O)NCc1ccc(N2CCN(S(=O)(=O)C(F)(F)F)C=N2)c(F)c1 [Compound 170] | 316
32 | CCc1nc2sc(Cl)cn2c1C(=O)NCc1ccc(N2CCN(S(=O)(=O)C(F)(F)F)C=N2)c(F)c1 [Compound 135] | 7.24
33 | CCc1nc2c(Br)cc(C)cn2c1C(=O)NCc1ccc(N2CCN(S(=O)(=O)C(F)(F)F)C=N2)c(F)c1 [Compound 166] | 245
34 | CCc1nc2ncc(Cl)cn2c1C(=O)NCc1ccc(N2CCN(S(=O)(=O)C(F)(F)F)C(CCO)=N2)cc1 [Compound 41] | 50.1
35 | CCc1nc2nc(NC)c(Cl)cn2c1C(=O)NCc1ccc(N2CCN(S(=O)(=O)C(F)(F)F)C=N2)c(F)c1 [Compound 83] | 372
36 | CCc1nc2cc(F)c(Cl)cn2c1C(=O)NCc1ccc(N2CCNC=N2)c(F)c1 [Compound 202] | 389
37 | CCc1nc2nc(C)c(C)cn2c1C(=O)NCc1ccc(N2CCN(S(=O)(=O)C(F)(F)F)C(OC)=N2)c(F)c1 [Compound 211] | 2.29
38 | CCc1nc2ccc(Cl)cn2c1C(=O)NCc1ccc(N2CCN(S(=O)(=O)C(F)(F)F)C(CCO)=N2)cc1 [Compound 40] | 63.1
39 | O=C(NCc1ccc(N2CCNC=N2)c(F)c1)c1c(C(F)(F)F)nc2ccccn12 [Compound 192] | > 500
40 | CCc1nc2ccc(Cl)cn2c1C(=O)NCc1ccc(N2CCN(S(=O)(=O)C(F)(F)F)C=N2)nc1 [Compound 171] | 25.1
41 | CCc1nc2cc(OC)ccn2c1C(=O)NCc1ccc(N2CCN(S(=O)(=O)C(F)(F)F)C(OC)=N2)c(F)c1 [Compound 75] | 6.31
42 | CCc1nc2cc(Cl)c(OC)cn2c1C(=O)NCc1ccc(N2CCN(S(=O)(=O)C(F)(F)F)C(OC)=N2)cc1 [Compound 45] | 39.8
43 | CCc1nc2cc3c(cn2c1C(=O)NCc1ccc(N2CCN(S(=O)(=O)C(F)(F)F)C=N2)c(F)c1)OCCN3C [Compound 191] | 38
44 | CCc1nc2ccc(Cl)cn2c1C(=O)NCc1ccc(N2CCN(S(=O)(=O)C(F)(F)F)C(CN(C)C)=N2)cc1 [Compound 74] | 6.76
45 | CCc1nc2c(F)cc(Cl)cn2c1C(=O)NCc1ccc(N2CCN(S(=O)(=O)C(F)(F)F)C(OC)=N2)c(F)c1 [Compound 210] | 3.02
46 | CCc1nc2ncc(OC)cn2c1C(=O)NCc1ccc(N2CCN(S(=O)(=O)C(F)(F)F)C(OC)=N2)c(F)c1 [Compound 50] | 1.07
47 | CCc1nc2nc3c(cn2c1C(=O)NCc1ccc(N2CCN(S(=O)(=O)C(F)(F)F)C=N2)c(F)c1)CCOC3 [Compound 169] | 10
48 | CCc1nc2ncc(F)cn2c1C(=O)NCc1ccc(N2CCN(S(=O)(=O)C(F)(F)F)C(OC)=N2)c(F)c1 [Compound 121] | 12.9
49 | CCc1nc2ccc(Cl)cn2c1C(=O)NCc1ccc(N2CCN(C)C=N2)cc1 [Compound 15] | 25.1
50 | CCc1nc2ncc(COC)cn2c1C(=O)NCc1ccc(N2CCN(S(=O)(=O)C(F)(F)F)C=N2)cc1 [Compound 33] | 25.1
